US20180280528A1, “ANTIFOLATE CONJUGATES FOR TREATING INFLAMMATION” (ENDOCYTE, INC., priority 2015, published 2018)
Read-outs that look alike come from different tables or passages of the source.

Legend:
[1] = Incubation with rat TG macrophage cell lysates; assay type: in vitro ADME; settings: rat TG macrophage lysate, pH 4.5, 37° C., 1 hour
Method: Female Lewis rats approximately 200 grams in size (Harlan Laboratories, Indianapolis, Ind.) were injected intraperitoneally at 20 mL/kg of body weight with sterile 7.5% thioglycollate solution (BD Biosciences) supplemented with 12.5% BSA aged for more than 6 months in the presence of 0.5 M D-glucose at 37° C. in the dark according to the procedure of Li et al. (Journal of Immunological Methods (1997) 201:183-188). Three days later these rats were humanely euthanized with CO2 asphyxiation and total peritoneal cells isolated by intraperitoneal lavage with 50 mL of sterile phosphate buffered saline (PBS) containing 0.5 mM EDTA. Red blood cells were lysed with a 5 minute incubation with 1×RBC lysis buffer (BioLegend, San Diego, Calif.). […] Cells were incubated for 2 hrs in 5% CO2. After two hours, floating cells/debris was removed and the adherent cells were washed once with drug free media. Normal growth media (10% FCS RPMI1640) was added to each plate of cells and then incubated for 1, 2 and 3 days in the tissue culture incubator. The adherent cells were harvested using an 8 minute trypsin digest to loosen the cells and then gently scraped off the plate. […] Live cells were counted and then washed once with cold PBS. […]

[2] = target: T1, human folate receptor (FR)-α (Homo sapiens, UniProt P15328); assay: Relative affinity assay (displacement of 3H-folic acid on KB cells); assay type: binding; settings: 100 nM 3H-folic acid, 1 h at 37° C., normalized against 1 for FA
T1 construct: endogenous in cells; host or cells: KB cells (human HeLa carcinoma contaminant)
T1 sequence (P15328 25-234): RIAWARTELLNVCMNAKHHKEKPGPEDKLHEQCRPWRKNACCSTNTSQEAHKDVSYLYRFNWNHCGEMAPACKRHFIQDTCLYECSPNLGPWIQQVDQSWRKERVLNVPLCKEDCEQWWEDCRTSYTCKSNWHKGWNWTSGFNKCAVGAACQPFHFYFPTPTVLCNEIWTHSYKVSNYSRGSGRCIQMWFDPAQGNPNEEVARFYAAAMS
Method: Cell lines utilized to evaluate EC2319 in in-vitro studies were as follows: KB human HeLa carcinoma contaminant expressing the human folate receptor (FR)-α, RAW264.7 mouse macrophage-derived tumor cells expressing a murine FR, THP-1-FRβ human monocytic leukemia engineered to express the human FR-β. All cells were grown in a folate-free RPMI1640 medium (Gibco BRL) (FFRPMI) containing 10% heat-inactivated fetal calf serum (HIFCS) and antibiotics, and maintained under a 5% CO2 atmosphere using standard cell culture techniques.
EC2319 FR-binding affinity was determined in a relative affinity assay using KB cells as the source of FR. Briefly, KB cells (1×10^5 cells/well) were plated in 24-well plates at 18 to 24 h before use. The cells were then incubated for 1 h at 37° C. with 100 nM of ^3H-folic acid (Moravek Inc.) plus a series of 3.16-fold dilutions of EC2319 or FA at 0.01-31.6 μM in triplicates. At the end of incubation, the cells were washed 3 times with a phosphate-buffered saline (PBS, pH 7.4) and lysed for 5 min at room temperature in 0.5 mL of 0.25 N NaOH. 0.45 mL of the cell lysate was taken from each well and counted in a scintillation counter. […] See result in FIG. 1.

[3] = test system: mouse RAW264.7 macrophage cells; assay: Cell viability (XTT) assay, RAW264.7; assay type: cell-based
Method: (§1) All cells were grown in a folate-free RPMI1640 medium (Gibco BRL) (FFRPMI) containing 10% heat-inactivated fetal calf serum (HIFCS) and antibiotics, and maintained under a 5% CO2 atmosphere using standard cell culture techniques.
(§2) After a 2 h exposure, the drug-containing media were replaced and the cells were allowed to incubate further for 72 h. The cell viability was assessed by adding XTT (2,3-bis(2-methoxy-4-nitro-5-sulfo-phenyl)-2H-tetrazolium-5-carboxanilide) to the culture medium for 3 h following the manufacturer's instructions. All results were expressed as % absorbance (minus background) relative to the untreated control cells. See results in FIG. 2A and FIG. 2B.
(§3) Importantly, the observed anti-proliferative effect was 100% competable in the presence of excess FA, indicating a FR-specific mode of action.

[4] = 500 nM, 37° C., two hours
Method: Blood samples were maintained at 37° C. for 30 minutes prior to spiking the analyte into 2.5 mL blood at 500 nM. At time 0 and every 30 minutes for two hours, blood samples were removed and centrifuged at 2000×g for 10 minutes to generate plasma. 50 μL aliquots of generated plasma were then transferred to a clean 1.2 mL plate containing N-Maleoyl-β-alanine, mannitol, and acetic acid. Samples were stored at −80° C. until being thawed for LC-MS/MS analysis.

human THP-1-FRβ cells = assay: Cell viability (XTT) assay, THP-1-FRβ; assay type: cell-based
Method: as §1, §2, §3

[5] = 2 h exposure, 72 h chase, XTT, read-out: relative IC50, inhibition of cell proliferation

For `N=c1[nH]c(N)nc2ncc(CNc3ccc(C(=O)N[C@@H](CCC(=O)NNC(=O)OCCSSC[C@@H](NC(=O)[C@H](CCC(=O)NC[C@H](O)[C@@H](O)[C@H](O)[C@H](O)CO)NC(=O)[C@@H](CCC(=O)O)NC(=O)[C@H](CCC(=O)NC[C@H](O)[C@@H](O)[C@H](O)[C@H](O)CO)NC(=O)[C@@H](CCC(=O)O)NC(=O)[C@H](CCC(=O)NC[C@H](O)[C@@H](O)[C@H](O)[C@H](O)CO)NC(=O)CC[C@H](NC(=O)c4ccc(NCc5cnc6nc(N)[nH]c(=O)c6n5)cc4)C(=O)O)C(=O)O)C(=O)O)cc3)nc12` [EC1669, reference compound], the aminopterin release [1] was “greater from EC1669 than from EC2319”.

With `COC(=O)[C@H](CSSC(C)(C)[C@H](NC(=O)[C@H](CCC(=O)NC[C@H](O)[C@@H](O)[C@H](O)[C@H](O)CO)NC(=O)[C@H](CCC(=O)O)NC(=O)[C@H](CCC(=O)NC[C@H](O)[C@@H](O)[C@H](O)[C@H](O)CO)NC(=O)[C@H](CCC(=O)O)NC(=O)[C@H](CCC(=O)NC[C@H](O)[C@@H](O)[C@H](O)[C@H](O)CO)NC(=O)CC[C@H](NC(=O)c1ccc(NCc2cnc3nc(N)[nH]c(=O)c3n2)cc1)C(=O)O)C(=O)O)NC(=O)CC[C@H](NC(=O)c1ccc(NCc2cnc3nc(N)nc(N)c3n2)cc1)C(=O)O` [EC2319] the relative affinity [2] was 0.493, the “concentrations with cytostatic effect” value [3] was ≥ 10 nM and the “anti-proliferative effect competable in the presence of excess FA” value ([3]; 100-fold excess FA) was 100%. For the same compound, the IC50 [3, 5] was ~2.9 nM, the “whole blood stability (percent remaining of intact conjugate, formation of EC1886)” value ([4]; fresh human blood) was “superior stability profile than EC1669” and the “whole blood stability (percent remaining of intact conjugate, formation of EC1886)” value ([4]; fresh rat blood) was “superior stability profile than EC1669”. For the same compound, the “concentrations with cytostatic effect” value (human THP-1-FRβ cells) was ≥ 100 nM, the “anti-proliferative effect competable in the presence of excess FA” value (human THP-1-FRβ cells; 100-fold excess FA) was 100% and the IC50 (human THP-1-FRβ cells; [5]) was ~8.7 nM. For the same compound, the aminopterin release [1] was “aminopterin release was observed”.
